Data as given in PubChem BioAssay AID248 (DTP/NCI, 2004).
Several values for one entry are separate records, joined by “and”; a condition that tells them apart may be missing. Equal values may be shown once. Inconclusive results and toxic doses are left out. Numbered stars: 1 amine (or outer) side, 2 acyl side, 3 side chain; on linkers, the order of the positions; unused ones are H or OH. Bridge positions count the residues as written; N and C are the ends. Square brackets hold non-standard residues; d marks the D form. Peptide text beside a SMILES is read from it. I, II: the chains in the order shown. Actinocin(1to9) = Cc1c2oc3c(C)ccc(C(=O)[*:2])c3nc-2c(C(=O)[*:1])c(N)c1=O; NMeV = CN[CH](C(=O)O)C(C)C; Sar = CNCC(=O)O

System: L1210 leukemia ip in BDF1 mice, survival T/C
Test: NCI In Vivo Anticancer Drug Screen. Data for tumor model L1210 Leukemia (intraperitoneal) in B6D2F1 (BDF1) mice
Settings: higher = longer survival
Outline: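 Transplantable tumor model; survival measured in treated vs vehicle control mice. Value = treated/control.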

[1] = endpoint: mean survival time, dose: 100.0 mg/kg/injection, schedule: Q04DX003 (ip), vehicle: Klucel (hydroxypropylcellulose) (HPC)
[2] = endpoint: mean survival time, dose: 200.0 mg/kg/injection, schedule: Q04DX003 (ip), vehicle: Klucel (hydroxypropylcellulose) (HPC)
[3] = endpoint: mean survival time, dose: 400.0 mg/kg/injection, schedule: Q04DX003 (ip), vehicle: Klucel (hydroxypropylcellulose) (HPC)
[4] = endpoint: mean survival time, dose: 100.0 mg/kg/injection, schedule: Q01DX001 (ip), vehicle: carboxymethylcellulose (CMC)
[5] = endpoint: mean survival time, dose: 400.0 mg/kg/injection, schedule: Q01DX001 (ip), vehicle: carboxymethylcellulose (CMC)
[6] = endpoint: mean survival time, dose: 100.0 mg/kg/injection, schedule: Q04DX002 (ip), vehicle: saline with Tween-80
[7] = endpoint: mean survival time, dose: 200.0 mg/kg/injection, schedule: Q04DX002 (ip), vehicle: saline with Tween-80
[8] = endpoint: mean survival time, dose: 400.0 mg/kg/injection, schedule: Q04DX002 (ip), vehicle: saline with Tween-80
[9] = endpoint: mean survival time, dose: 100.0 mg/kg/injection, schedule: Q04DX003 (ip), vehicle: saline with Tween-80
[10] = endpoint: mean survival time, dose: 200.0 mg/kg/injection, schedule: Q04DX003 (ip), vehicle: saline with Tween-80
[11] = endpoint: mean survival time, dose: 400.0 mg/kg/injection, schedule: Q04DX003 (ip), vehicle: saline with Tween-80
[12] = endpoint: mean survival time, dose: 100.0 mg/kg/injection, schedule: Q01DX009 (ip), vehicle: saline
[13] = endpoint: mean survival time, dose: 200.0 mg/kg/injection, schedule: Q01DX009 (ip), vehicle: saline
[14] = endpoint: mean survival time, dose: 400.0 mg/kg/injection, schedule: Q01DX009 (ip), vehicle: saline
[15] = endpoint: mean survival time, dose: 50.0 mg/kg/injection, schedule: Q01DX001 (ip), vehicle: carboxymethylcellulose (CMC)
[16] = endpoint: mean survival time, dose: 200.0 mg/kg/injection, schedule: Q01DX001 (ip), vehicle: carboxymethylcellulose (CMC)
[17] = endpoint: mean survival time, dose: 100.0 mg/kg/injection, schedule: Q01DX001 (ip), vehicle: Klucel (hydroxypropylcellulose) (HPC)
[18] = endpoint: mean survival time, dose: 200.0 mg/kg/injection, schedule: Q01DX001 (ip), vehicle: Klucel (hydroxypropylcellulose) (HPC)
[19] = endpoint: mean survival time, dose: 400.0 mg/kg/injection, schedule: Q01DX001 (ip), vehicle: Klucel (hydroxypropylcellulose) (HPC)

## ClCCOCc1ccccc1
[1]
  T/C: 102 % of control
[2]
  T/C: 100 % of control
[3]
  T/C: 98 % of control

## Cc1c2c(n(C)c1C(=O)N1CCCCC1)CCCC2=O
endpoint: mean survival time, dose: 75.0 mg/kg/injection, schedule: Q01DX001 (ip), vehicle: carboxymethylcellulose (CMC)
  T/C: 103 % of control
endpoint: mean survival time, dose: 150.0 mg/kg/injection, schedule: Q01DX001 (ip), vehicle: carboxymethylcellulose (CMC)
  T/C: 101 % of control
endpoint: mean survival time, dose: 300.0 mg/kg/injection, schedule: Q01DX001 (ip), vehicle: carboxymethylcellulose (CMC)
  T/C: 98 % of control

## O=[N+]([O-])c1ccc2cnn(CN3CCCCC3)c2c1
[4]
  T/C: 98 % of control
[5]
  T/C: 98 % of control

## COc1ccc(Br)cc1
endpoint: mean survival time, dose: 100.0 mg/kg/injection, schedule: Q01DX009 (ip), vehicle: saline with Tween-80
  T/C: 96 % of control
[1]
  T/C: 100 % of control
endpoint: mean survival time, dose: 200.0 mg/kg/injection, schedule: Q01DX009 (ip), vehicle: saline with Tween-80
  T/C: 89 % of control
[2]
  T/C: 100 % of control
[3]
  T/C: 103 % of control

## CCN(CC)c1ccc(NCN2C(=O)c3ccccc3C2=O)c(C)c1
[6]
  T/C: 97 % of control
[7]
  T/C: 111 % of control

## Nc1cccc(CO)c1
[6]
  T/C: 104 % of control
[7]
  T/C: 90 % of control
[8]
  T/C: 90 % of control

## O=Cc1ccc[n+](Cc2ccccc2)c1
endpoint: mean survival time, dose: 75.0 mg/kg/injection, schedule: Q01DX001 (ip), vehicle: saline
  T/C: 98 % of control
endpoint: mean survival time, dose: 150.0 mg/kg/injection, schedule: Q01DX001 (ip), vehicle: saline
  T/C: 102 % of control
endpoint: mean survival time, dose: 300.0 mg/kg/injection, schedule: Q01DX001 (ip), vehicle: saline
  T/C: 102 % of control

## CCC(C)C1NC(=O)C(NC(=O)c2c3nc4c(C(=O)NC5C(=O)NC(C(C)CC)C(=O)N6CCCC6C(=O)N(C)CC(=O)N(C)C(C(C)C)C(=O)OC5C)ccc(C)c4oc-3c(C)c(=O)c2N)C(C)OC(=O)C(C(C)C)N(C)C(=O)CN(C)C(=O)C2CCCN2C1=O (configuration not stated) (I: TIP[Sar][NMeV] / II: TIP[Sar][NMeV]; ester I:1-I:C, II:1-II:C; linker I:N-II:N via Actinocin(1to9); configuration not given here)
endpoint: mean survival time, dose: 0.1 mg/kg/injection, schedule: Q01DX009 (ip), vehicle: saline
  T/C: 170 % of control
endpoint: mean survival time, dose: 0.4 mg/kg/injection, schedule: Q01DX009 (ip), vehicle: saline
  T/C: 86 % of control
endpoint: mean survival time, dose: 2.5 micrograms/kg/injection, schedule: Q01DX009 (ip), vehicle: saline
  T/C: 115 % of control
endpoint: mean survival time, dose: 3.1 micrograms/kg/injection, schedule: Q01DX001 (ip), vehicle: saline
  T/C: 106 % of control
endpoint: mean survival time, dose: 6.0 micrograms/kg/injection, schedule: Q01DX009 (ip), vehicle: saline
  T/C: 122 % of control
endpoint: mean survival time, dose: 6.3 micrograms/kg/injection, schedule: Q01DX001 (ip), vehicle: saline
  T/C: 102 % of control
endpoint: mean survival time, dose: 10.0 micrograms/kg/injection, schedule: Q01DX009 (ip), vehicle: saline
  T/C: 118 % of control
endpoint: mean survival time, dose: 12.5 micrograms/kg/injection, schedule: Q01DX001 (ip), vehicle: saline
  T/C: 102 % of control
endpoint: mean survival time, dose: 12.5 micrograms/kg/injection, schedule: Q01DX009 (ip), vehicle: saline
  T/C: 122 % of control
endpoint: mean survival time, dose: 25.0 micrograms/kg/injection, schedule: Q01DX001 (ip), vehicle: saline
  T/C: 114 % of control
endpoint: mean survival time, dose: 50.0 micrograms/kg/injection, schedule: Q01DX001 (ip), vehicle: saline
  T/C: 102 % of control
endpoint: mean survival time, dose: 50.0 micrograms/kg/injection, schedule: Q01DX009 (ip), vehicle: saline
  T/C: 150 % of control
endpoint: mean survival time, dose: 59.4 micrograms/kg/injection, schedule: Q01DX009 (ip), vehicle: acetone
  T/C: 160 % of control
endpoint: mean survival time, dose: 90.0 micrograms/kg/injection, schedule: Q01DX009 (ip), vehicle: acetone
  T/C: 102 % of control
endpoint: mean survival time, dose: 100.0 micrograms/kg/injection, schedule: Q01DX001 (ip), vehicle: saline
  T/C: 111 % of control
endpoint: mean survival time, dose: 135.0 micrograms/kg/injection, schedule: Q01DX009 (ip), vehicle: acetone
  T/C: 104 % of control
endpoint: mean survival time, dose: 200.0 micrograms/kg/injection, schedule: Q01DX001 (ip), vehicle: saline
  T/C: 117 % of control
endpoint: median survival time, dose: 12.5 micrograms/kg/injection, schedule: Q01DX009 (ip), vehicle: water
  T/C: 113 % of control
endpoint: median survival time, dose: 25.0 micrograms/kg/injection, schedule: Q01DX009 (ip), vehicle: water
  T/C: 117 % of control
endpoint: median survival time, dose: 75.0 micrograms/kg/injection, schedule: Q04DX003 (ip), vehicle: water
  T/C: 122 % of control
endpoint: median survival time, dose: 200.0 micrograms/kg/injection, schedule: Q01DX001 (ip), vehicle: water
  T/C: 118 % of control
endpoint: median survival time, dose: 600.0 micrograms/kg/injection, schedule: Q04DX003 (ip), vehicle: water
  T/C: 150 % of control

## CCOC(=O)N/N=C/c1ccc(N(C)CCC#N)cc1
endpoint: mean survival time, dose: 100.0 mg/kg/injection, schedule: Q01DX001 (ip), vehicle: saline with Tween-80
  T/C: 100 % of control
[6]
  T/C: 95 % of control and 107 % of control
[9]
  T/C: 102 % of control
endpoint: mean survival time, dose: 200.0 mg/kg/injection, schedule: Q01DX001 (ip), vehicle: saline with Tween-80
  T/C: 103 % of control
[7]
  T/C: 96 % of control and 104 % of control
[10]
  T/C: 93 % of control and 98 % of control
[8]
  T/C: 98 % of control and 107 % of control
[11]
  T/C: 94 % of control and 96 % of control

## O=C(O)C(CCc1ccccc1)N1CCOCC1 (configuration not stated)
[12]
  T/C: 100 % of control
[13]
  T/C: 101 % of control
[14]
  T/C: 103 % of control

## O=C1COC(=O)N1
[12]
  T/C: 100 % of control
[13]
  T/C: 100 % of control
[14]
  T/C: 100 % of control

## Nc1nc(N)nc(CC(=O)O)n1
[15]
  T/C: 95 % of control
[4]
  T/C: 90 % of control
[16]
  T/C: 95 % of control
[5]
  T/C: 93 % of control

## Cc1cc(=O)[nH]c(NCCCCCC(=O)O)n1
endpoint: mean survival time, dose: 25.0 mg/kg/injection, schedule: Q04DX003 (ip), vehicle: saline
  T/C: 104 % of control
endpoint: mean survival time, dose: 50.0 mg/kg/injection, schedule: Q04DX003 (ip), vehicle: saline
  T/C: 104 % of control
endpoint: mean survival time, dose: 100.0 mg/kg/injection, schedule: Q04DX003 (ip), vehicle: saline
  T/C: 101 % of control

## CC(C)=NNC(=O)c1ccccn1
[15]
  T/C: 101 % of control
endpoint: mean survival time, dose: 50.0 mg/kg/injection, schedule: Q01DX009 (ip), vehicle: carboxymethylcellulose (CMC)
  T/C: 104 % of control
endpoint: mean survival time, dose: 50.0 mg/kg/injection, schedule: Q04DX003 (ip), vehicle: carboxymethylcellulose (CMC)
  T/C: 100 % of control
[4]
  T/C: 104 % of control
endpoint: mean survival time, dose: 100.0 mg/kg/injection, schedule: Q01DX009 (ip), vehicle: carboxymethylcellulose (CMC)
  T/C: 104 % of control and 106 % of control
endpoint: mean survival time, dose: 100.0 mg/kg/injection, schedule: Q04DX003 (ip), vehicle: carboxymethylcellulose (CMC)
  T/C: 115 % of control
[16]
  T/C: 113 % of control

## COc1ccccc1-n1c(=O)c(N=Nc2ccccc2C)c(O)n(-c2ccccc2Cl)c1=S
endpoint: mean survival time, dose: 50.0 mg/kg/injection, schedule: Q01DX001 (ip), vehicle: Klucel (hydroxypropylcellulose) (HPC)
  T/C: 107 % of control
[17]
  T/C: 102 % of control
[18]
  T/C: 110 % of control

## Nc1ccc(P(=O)(Nc2cccc(Cl)c2)Nc2cccc(Cl)c2)cc1
endpoint: mean survival time, dose: 100.0 mg/kg/injection, schedule: Q04DX003 (ip), vehicle: acetone
  T/C: 108 % of control
endpoint: mean survival time, dose: 200.0 mg/kg/injection, schedule: Q04DX003 (ip), vehicle: acetone
  T/C: 92 % of control
endpoint: mean survival time, dose: 400.0 mg/kg/injection, schedule: Q04DX003 (ip), vehicle: acetone
  T/C: 92 % of control

## Cc1cc2ccccc2c(N=Cc2cc(Br)cc(Br)c2O)c1C#N
[9]
  T/C: 92 % of control and 98 % of control and 90 % of control
endpoint: mean survival time, dose: 200.0 mg/kg/injection, schedule: Q01DX003 (ip), vehicle: saline with Tween-80
  T/C: 87 % of control
[10]
  T/C: 93 % of control and 98 % of control and 90 % of control
[11]
  T/C: 97 % of control and 101 % of control and 104 % of control

## C#CCOS(=O)OCCCCCCCCCC (configuration not stated) (tested in a mixture with another compound)
[1]
  T/C: 105 % of control
[2]
  T/C: 91 % of control
[3]
  T/C: 94 % of control

## CCCCNS(=O)(=O)c1ccc(C(N)=S)cc1
[17]
  T/C: 111 % of control
[18]
  T/C: 106 % of control
[19]
  T/C: 103 % of control

## O=c1c2ccccc2n2nnc3cccc1c32
[17]
  T/C: 97 % of control and 88 % of control
[1]
  T/C: 91 % of control
[18]
  T/C: 87 % of control
[2]
  T/C: 95 % of control
[19]
  T/C: 92 % of control

## C=C1C(=O)O[C@@H]2C[C@@H](C)[C@@H]3CC(=O)OC[C@@]3(C)C[C@H]12
[9]
  T/C: 95 % of control
[10]
  T/C: 97 % of control

## COc1ccc(NC(=O)Oc2ccc(Cl)c(C)c2)c(OC)c1
[12]
  T/C: 118 % of control
[13]
  T/C: 114 % of control
[14]
  T/C: 108 % of control
